The structures appear in SMILES notation.

For one experiment, the target named is T1, WNK1 (1–190) (Homo sapiens, UniProt Q9H4A3).
T1 construct: different lengths of WNK1 truncations (1–491, 1–190, 191–491, 491–2382); expressed in transfected cells; host or cells: HEK293T
The experiment can be described thus: MST, EGFP-tagged WNK1 truncation 1–190. It counts as binding. As to conditions: WNK1 1–190 (non-kinase segment), 15 min, HEK293T lysates. The text has this: To further validate these findings, we constructed GFP‐tagged fusion proteins with different lengths of WNK1 truncations (1–491, 1–190, 191–491, 491–2382) based on the WNK1 domains (Figure 3E) and analyzed their binding capacity with bilirubin using MST analysis.^[ [29] ^]
(§1) All WNK1 clones were derived from the original untagged hWNK1 cDNA (NM_018979), which was modified and subcloned into the pcDNA3.1, referred to as “full‐length WNK1” throughout this study. Truncated constructs, including 1–190aa, 191–491aa, 1–491aa, and 491–2382aa fragments, were generated by PCR using the full‐length template and subsequently ligated into linearized pcDNA3.1 vectors. WNK2 was obtained from Addgene Plasmid #24569, and WNK3 was obtained from Addgene Plasmid #81723. Both were subjected to base modifications and cloned into pcDNA3.1. The WNK4 clone was derived from hWNK4 cDNA (NM_032387.5), modified, and subcloned into the pCMV3‐C‐GFPSpark vector.
In HEK293T cells, proteins tagged with green fluorescent protein (GFP) were expressed. The cells were lysed using the M‐PER Mammalian Protein Extraction Reagent (cat. no. 78505, Thermo Scientific) supplemented with protease inhibitors. Lysates were centrifuged at 12000 × g for 15 min at 4 °C, and the supernatant containing proteins was diluted 10‐fold with 1x PBST. […]

A further experiment concerns FABP1. Set-up: method as in PMID 37390966, PMID 34067839. To be noted: cited from earlier work.
Another experiment deals with T2, hWNK2 (Homo sapiens, UniProt Q9Y3S1).
T2 construct: host or cells: HEK293T
Briefly: MST, WNK kinase family member WNK2. It counts as binding. The method, then:
To validate the direct binding of bilirubin to WNK1, we performed a Microscale Thermophoresis (MST) analysis, which assesses the binding capacity of a compound by measuring the movement of proteins over a microscopic temperature gradient.^[ [26], [27] ^] We overexpressed full‐length WNK1 fused with Green Fluorescent Protein (GFP) in HEK‐293 cells, incubated the lysates with bilirubin at varying dilutions, and subjected them to precise MST measurements in capillaries. […] Furthermore, biliverdin, a structurally similar intermediate product generated before bilirubin formation, was used as a control.
as §1
In HEK293T cells, proteins tagged with green fluorescent protein (GFP) were expressed. […]

For a further experiment, the system named is phospho-S940 KCC2. The experiment can be described thus: Western blotting of phospho-S940 KCC2 in hippocampal tissue. It counts as cell-based, mouse. The text has this: Since bilirubin‐induced activation of WNK1 kinase activity increases [Cl⁻]i in neurons, we sought to elucidate the downstream effector proteins of WNK1 that are involved in this process. Neuronal [Cl⁻]i is primarily regulated by the Cl⁻‐K⁺ symporter KCC2, with additional modulation by factors such as the Na⁺‐K⁺‐Cl⁻ co‐transporter NKCC1, GABAA receptors, and glycine receptors (GlyR), all of which contribute to [Cl⁻]i homeostasis.^[ [31] ^] To investigate the mechanism underlying bilirubin‐induced changes in [Cl⁻]i, we selectively targeted these proteins using pharmacological inhibitors (VU0463271 for KCC2, bumetanide for NKCC1, bicuculline for GABAA receptors, and strychnine for GlyR) and activated KCC2 using CLP257.^[ [35], [36] ^] […]
Cells or tissues were lysed by grinding in RIPA buffer (cat. no. PC101; Epizyme Biotech) supplemented with a protease inhibitor cocktail (cat. no. 5872S; Cell Signaling Technology) at 4 °C. […] The total protein concentration was determined using the Pierce BCA Protein Assay Kit (cat. no. 23 225, Thermo Fisher Scientific). […]
(In general: A western blot detects proteins with antibodies after separation by electrophoresis.)

The target in another experiment is T3, WNK1 (Homo sapiens, UniProt Q9H4A3).
T3 construct: endogenous in cells; host or cells: SH-SY5Y
The experiment can be described thus: CETSA-Western blotting in SH-SY5Y cells. It counts as cell-based. As to conditions: 6 µM in serum-free medium vs DMSO, denaturation at different temperatures, soluble fraction. The method, then:
To validate these findings, SH‐SY5Y cells were incubated in a serum‐free medium with bilirubin (6 µM) or an equivalent amount of DMSO as the control, followed by protein denaturation at different temperatures (Figure 1A).
Cells or tissues were lysed by grinding in RIPA buffer (cat. no. PC101; Epizyme Biotech) supplemented with a protease inhibitor cocktail (cat. no. 5872S; Cell Signaling Technology) at 4 °C. The lysate was subsequently centrifuged at 16000 × g for 30 min at 4 °C and the resulting supernatant was collected. The total protein concentration was determined using the Pierce BCA Protein Assay Kit (cat. no. 23 225, Thermo Fisher Scientific). The samples were denatured in a Protein Sample Loading Buffer (cat. no. LT101; Epizyme Biotech) at 95 °C and subjected to SDS‐polyacrylamide gel electrophoresis. Following electrophoresis, the proteins were transferred onto a nitrocellulose membrane (cat. no. HATF00010; Millipore) using a transfer buffer composed of 25 mM Tris, 190 mM glycine, and 20% methanol. Membranes were blocked with blocking buffer for western blotting (cat. no. P0252; Beyotime Biotechnology) at room temperature for 15 min, followed by overnight incubation with the primary antibody at 4 °C. After primary antibody incubation, the membranes were washed and incubated with secondary antibody at room temperature for 1 h. […]

T1 sequence (Q9H4A3 1-190): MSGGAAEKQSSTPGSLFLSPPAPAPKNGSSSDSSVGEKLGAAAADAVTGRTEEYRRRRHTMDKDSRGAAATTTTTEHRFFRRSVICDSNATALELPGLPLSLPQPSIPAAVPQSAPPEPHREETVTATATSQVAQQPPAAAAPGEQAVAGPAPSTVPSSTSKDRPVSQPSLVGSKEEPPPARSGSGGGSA
T2 sequence (Q9Y3S1 whole entry): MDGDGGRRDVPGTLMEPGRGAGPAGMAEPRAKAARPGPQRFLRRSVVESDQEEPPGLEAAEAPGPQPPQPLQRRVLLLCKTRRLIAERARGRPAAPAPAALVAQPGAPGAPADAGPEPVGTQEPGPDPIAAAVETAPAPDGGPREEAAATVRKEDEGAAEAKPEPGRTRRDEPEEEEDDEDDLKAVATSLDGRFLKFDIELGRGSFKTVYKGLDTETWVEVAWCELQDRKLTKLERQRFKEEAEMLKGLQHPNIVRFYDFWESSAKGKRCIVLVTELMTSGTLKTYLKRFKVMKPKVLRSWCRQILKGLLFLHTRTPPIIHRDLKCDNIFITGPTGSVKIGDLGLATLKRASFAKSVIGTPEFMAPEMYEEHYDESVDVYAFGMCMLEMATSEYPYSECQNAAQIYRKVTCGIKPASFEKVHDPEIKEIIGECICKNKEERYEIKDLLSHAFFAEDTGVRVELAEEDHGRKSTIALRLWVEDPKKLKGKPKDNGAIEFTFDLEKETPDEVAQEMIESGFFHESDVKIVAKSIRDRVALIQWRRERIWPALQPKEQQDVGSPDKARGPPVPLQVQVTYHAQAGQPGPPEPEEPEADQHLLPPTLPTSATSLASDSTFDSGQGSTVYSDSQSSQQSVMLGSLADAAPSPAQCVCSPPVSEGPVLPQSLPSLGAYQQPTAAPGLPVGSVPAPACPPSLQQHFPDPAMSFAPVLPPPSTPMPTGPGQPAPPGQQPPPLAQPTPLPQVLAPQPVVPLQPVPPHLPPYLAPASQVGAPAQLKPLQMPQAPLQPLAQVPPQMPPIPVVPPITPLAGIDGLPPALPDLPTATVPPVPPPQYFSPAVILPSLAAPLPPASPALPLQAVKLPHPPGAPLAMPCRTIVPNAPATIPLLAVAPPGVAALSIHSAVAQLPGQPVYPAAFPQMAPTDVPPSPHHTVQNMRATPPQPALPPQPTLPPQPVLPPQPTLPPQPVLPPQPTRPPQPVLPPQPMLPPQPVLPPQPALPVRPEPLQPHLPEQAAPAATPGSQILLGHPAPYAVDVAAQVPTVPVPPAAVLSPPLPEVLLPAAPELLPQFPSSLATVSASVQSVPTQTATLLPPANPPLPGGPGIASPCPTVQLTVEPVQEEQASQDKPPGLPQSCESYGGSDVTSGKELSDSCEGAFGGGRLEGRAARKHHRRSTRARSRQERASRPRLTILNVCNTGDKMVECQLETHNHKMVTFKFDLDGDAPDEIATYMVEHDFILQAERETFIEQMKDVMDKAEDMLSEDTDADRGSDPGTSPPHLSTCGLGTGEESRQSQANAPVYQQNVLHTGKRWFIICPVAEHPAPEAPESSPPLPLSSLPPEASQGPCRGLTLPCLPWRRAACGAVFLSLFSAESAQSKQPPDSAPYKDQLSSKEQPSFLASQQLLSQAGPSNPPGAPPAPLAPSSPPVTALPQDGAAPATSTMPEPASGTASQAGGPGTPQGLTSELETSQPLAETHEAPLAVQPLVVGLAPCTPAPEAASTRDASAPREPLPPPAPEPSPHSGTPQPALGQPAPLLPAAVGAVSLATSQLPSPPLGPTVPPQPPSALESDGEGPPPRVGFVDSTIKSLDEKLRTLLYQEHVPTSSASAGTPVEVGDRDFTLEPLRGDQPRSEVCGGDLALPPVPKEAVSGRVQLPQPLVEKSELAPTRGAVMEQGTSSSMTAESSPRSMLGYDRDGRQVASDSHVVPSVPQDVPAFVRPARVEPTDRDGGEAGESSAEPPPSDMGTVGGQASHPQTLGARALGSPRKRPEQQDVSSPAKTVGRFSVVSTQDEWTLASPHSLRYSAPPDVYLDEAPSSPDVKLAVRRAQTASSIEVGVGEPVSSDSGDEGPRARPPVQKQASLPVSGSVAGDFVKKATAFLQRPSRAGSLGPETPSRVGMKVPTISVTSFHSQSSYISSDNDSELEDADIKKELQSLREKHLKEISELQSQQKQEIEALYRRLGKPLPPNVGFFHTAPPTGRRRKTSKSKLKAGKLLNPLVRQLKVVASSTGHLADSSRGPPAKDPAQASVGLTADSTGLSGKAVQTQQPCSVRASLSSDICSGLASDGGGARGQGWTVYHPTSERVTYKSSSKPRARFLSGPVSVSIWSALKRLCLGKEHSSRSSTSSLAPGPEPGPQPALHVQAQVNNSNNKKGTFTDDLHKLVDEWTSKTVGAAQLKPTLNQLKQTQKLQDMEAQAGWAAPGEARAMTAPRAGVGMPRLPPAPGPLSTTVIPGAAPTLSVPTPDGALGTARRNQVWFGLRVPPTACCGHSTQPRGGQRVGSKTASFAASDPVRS
T3 sequence (Q9H4A3 whole entry): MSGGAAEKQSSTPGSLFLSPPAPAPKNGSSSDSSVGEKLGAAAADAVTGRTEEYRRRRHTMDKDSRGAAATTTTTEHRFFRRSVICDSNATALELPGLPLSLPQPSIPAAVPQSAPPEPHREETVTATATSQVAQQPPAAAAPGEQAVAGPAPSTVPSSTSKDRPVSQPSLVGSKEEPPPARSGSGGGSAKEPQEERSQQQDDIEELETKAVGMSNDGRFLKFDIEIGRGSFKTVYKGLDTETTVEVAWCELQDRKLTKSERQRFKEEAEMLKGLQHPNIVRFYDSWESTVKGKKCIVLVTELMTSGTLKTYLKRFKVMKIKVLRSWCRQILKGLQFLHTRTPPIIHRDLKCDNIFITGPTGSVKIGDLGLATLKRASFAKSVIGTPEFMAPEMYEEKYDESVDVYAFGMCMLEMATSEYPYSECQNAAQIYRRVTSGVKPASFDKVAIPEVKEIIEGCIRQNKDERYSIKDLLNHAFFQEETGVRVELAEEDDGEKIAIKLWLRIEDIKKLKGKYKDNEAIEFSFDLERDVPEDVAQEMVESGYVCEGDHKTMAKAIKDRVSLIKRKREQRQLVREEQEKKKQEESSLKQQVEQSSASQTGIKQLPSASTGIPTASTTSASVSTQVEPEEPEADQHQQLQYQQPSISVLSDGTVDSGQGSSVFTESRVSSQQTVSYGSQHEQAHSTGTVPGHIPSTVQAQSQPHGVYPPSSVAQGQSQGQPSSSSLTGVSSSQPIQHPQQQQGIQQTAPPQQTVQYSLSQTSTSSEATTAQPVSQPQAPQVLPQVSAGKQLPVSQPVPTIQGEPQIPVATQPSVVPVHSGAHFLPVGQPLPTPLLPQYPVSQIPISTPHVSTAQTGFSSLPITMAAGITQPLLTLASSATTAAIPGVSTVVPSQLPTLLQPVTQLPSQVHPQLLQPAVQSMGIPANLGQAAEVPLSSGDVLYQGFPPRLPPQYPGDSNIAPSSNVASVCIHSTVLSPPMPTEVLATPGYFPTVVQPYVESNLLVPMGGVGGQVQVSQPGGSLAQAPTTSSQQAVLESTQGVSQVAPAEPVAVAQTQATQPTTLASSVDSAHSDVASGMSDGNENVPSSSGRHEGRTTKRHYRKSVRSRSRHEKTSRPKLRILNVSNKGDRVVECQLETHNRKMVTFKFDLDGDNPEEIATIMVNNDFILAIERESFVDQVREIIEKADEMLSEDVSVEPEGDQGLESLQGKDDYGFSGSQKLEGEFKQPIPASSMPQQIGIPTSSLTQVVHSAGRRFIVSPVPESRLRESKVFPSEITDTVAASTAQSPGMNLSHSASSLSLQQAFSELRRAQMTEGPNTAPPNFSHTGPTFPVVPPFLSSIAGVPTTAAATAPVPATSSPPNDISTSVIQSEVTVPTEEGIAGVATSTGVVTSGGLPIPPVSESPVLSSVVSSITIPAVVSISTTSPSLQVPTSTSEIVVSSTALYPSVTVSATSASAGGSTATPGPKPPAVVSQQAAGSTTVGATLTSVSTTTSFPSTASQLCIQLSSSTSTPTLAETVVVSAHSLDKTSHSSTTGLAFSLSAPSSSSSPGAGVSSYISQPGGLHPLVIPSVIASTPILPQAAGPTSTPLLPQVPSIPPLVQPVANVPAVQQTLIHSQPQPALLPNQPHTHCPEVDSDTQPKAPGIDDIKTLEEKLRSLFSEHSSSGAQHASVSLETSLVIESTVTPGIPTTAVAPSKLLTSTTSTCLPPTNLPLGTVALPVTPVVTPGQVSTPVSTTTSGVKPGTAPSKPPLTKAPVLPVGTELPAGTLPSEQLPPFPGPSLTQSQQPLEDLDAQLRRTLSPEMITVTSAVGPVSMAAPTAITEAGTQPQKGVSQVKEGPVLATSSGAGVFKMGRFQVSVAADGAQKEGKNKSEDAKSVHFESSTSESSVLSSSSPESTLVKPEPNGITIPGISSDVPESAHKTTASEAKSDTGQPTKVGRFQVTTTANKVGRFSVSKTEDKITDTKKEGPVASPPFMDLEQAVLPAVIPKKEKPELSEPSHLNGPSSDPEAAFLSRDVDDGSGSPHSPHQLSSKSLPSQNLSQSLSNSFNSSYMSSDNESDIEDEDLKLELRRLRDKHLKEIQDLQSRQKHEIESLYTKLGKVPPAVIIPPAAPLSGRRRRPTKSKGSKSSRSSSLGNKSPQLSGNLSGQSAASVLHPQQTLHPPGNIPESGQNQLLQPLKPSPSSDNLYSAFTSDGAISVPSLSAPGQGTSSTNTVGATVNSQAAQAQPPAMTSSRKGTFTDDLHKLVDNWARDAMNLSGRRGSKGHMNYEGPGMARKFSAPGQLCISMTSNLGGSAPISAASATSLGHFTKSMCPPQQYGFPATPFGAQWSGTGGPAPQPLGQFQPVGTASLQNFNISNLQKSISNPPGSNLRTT

By Kd is commonly meant the equilibrium constant for the complex coming apart. High values mean a looser complex, low ones a tighter complex. On to `C=CC1=C(C)/C(=C/c2[nH]c(Cc3[nH]c(/C=C4\NC(=O)C(C)=C4C=C)c(C)c3CCC(=O)O)c(CCC(=O)O)c2C)NC1=O` [bilirubin, Bilirubin], for which the Kd on WNK1 (1–190) worked out at 1.83 µM; at hWNK2, 0.53 µM. Besides, the “concentrations at which FABP1 binds bilirubin” value with FABP1 is 1 to 4 µM. Moreover, the “relative expression of phospho-S940 KCC2” value is on record as “decrease” with phospho-S940 KCC2 (Wnk1fl/fl mice hippocampal tissue) and “no such effect” in the experiment on phospho-S940 KCC2 (Wnk1fl/fl,Thy1-Cre mice hippocampal tissue). Moreover, the “thermal stability of WNK1” value on WNK1 is reported as “enhanced thermal stability”.

These data come from publication PMC12362796, “Bilirubin Targeting WNK1 to Alleviate NLRP3‐Mediated Neuroinflammation” (Advanced Science, 2025).
